Experimental data reported in patent US9242001B2, “Cationic lipids for therapeutic agent delivery formulations” (Nitto Denko Corporation, priority 2011, dated 2016).

Test system: gp46 mRNA
Assay: pHSC in vitro assay, gp46 gene knockdown by qRT-PCR
Type: cell-based, rat
Details: @ 50 nM

| Compound | in vitro (pHSC) % KD |
| --- | --- |
| CCCCC/C=C\C/C=C\CCCCCCCC(=O)OCCN(CCOC(=O)CCCCCCC/C=C\C/C=C\CCCCC)C(=O)C[N+](C)(C)CCO.[Br-] [HEDC-DLin, 2-(bis(2-((9Z,12Z)-octadeca-9,12-dienoyloxy)ethyl)amino)-N-(2-hydroxyethyl)-N,N-dimethyl-2-oxoethanaminium bromide] | i. 50% @ 50 nM |
| CCCCCCCCCCCC(=O)OCCN(CCOC(=O)CCCCCCCCCCC)C(=O)C[N+](C)(C)CCO.[Br-] [HEDC-12, 2-(bis(2-(dodecanoyloxy)ethyl)amino)-N-(2-hydroxyethyl)-N,N-dimethyl-2-oxoethanaminium bromide] | i. 0% @ 50 nM |
